The supplement of paper PMC9663587

Assays:
Flavopiridol [1] = compound: T1, CN1CC[C@H](c2c(O)cc(O)c3c(=O)cc(-c4ccccc4Cl)oc23)[C@H](O)C1 [Flavopiridol]; assay: increase in dead-cell fraction, 72 h; higher = more death;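 further: breast cancer cell lines in 384-well plates, stained with Hoechst plus LIVE/DEAD far red dye and imaged, cells above an LDR intensity threshold counted dead, Hoechst-negative corpses included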
[2] = compound: CCN1CCN(Cc2ccc(Nc3ncc(F)c(-c4cc(F)c5nc(C)n(C(C)C)c5c4)n3)nc2)CC1; assay: as above
THZ1 = compound: CN(C)C/C=C/C(=O)Nc1ccc(C(=O)Nc2cccc(Nc3ncc(Cl)c(-c4c[nH]c5ccccc45)n3)c2)cc1 [THZ1]; assay: GR value, 72 h; higher = faster growth (1 = untreated, <0 = killing);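 further: breast cancer and non-malignant breast epithelial lines, nine half-log doses, viable cells counted by Hoechst and LIVE/DEAD dye imaging versus time-zero plates and DMSO controls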
Flavopiridol [3] = compound: T1, Flavopiridol; assay: as above
YKL-5-124 = compound: C=CC(=O)Nc1ccc(C(=O)Nc2[nH]nc3c2CN(C(=O)N[C@H](CN(C)C)c2ccccc2)C3(C)C)cc1 [YKL-5-124]; assay: as above
THZ531 = compound: CN(C)C/C=C/C(=O)Nc1ccc(C(=O)N2CCC[C@@H](Nc3ncc(Cl)c(-c4c[nH]c5ccccc45)n3)C2)cc1 [THZ531]; assay: as above
LEE011/Ribociclib = compound: CN(C)C(=O)c1cc2cnc(Nc3ccc(N4CCNCC4)cn3)nc2n1C1CCCC1 [LEE011/Ribociclib]; assay: as above
[4] = compound: CC(=O)c1c(C)c2cnc(Nc3ccc(N4CCNCC4)cn3)nc2n(C2CCCC2)c1=O; assay: as above
Neratinib/HKI272 = compound: CCOc1cc2ncc(C#N)c(Nc3ccc(OCc4ccccn4)c(Cl)c3)c2cc1NC(=O)/C=C/CN(C)C [Neratinib/HKI272]; assay: as above
BSJ-03-123 = compound: CC(=O)c1c(C)c2cnc(Nc3ccc(N4CCN(CCOCCOCCOCCNC(=O)COc5cccc6c5C(=O)N(C5CCC(=O)NC5=O)C6=O)CC4)cn3)nc2n(C2CCCC2)c1=O [BSJ-03-123]; assay: as above
[5] = compound: CCc1cnn2c(NCc3ccc[n+]([O-])c3)cc(N3CCCC[C@H]3CCO)nc12; assay: as above
[6] = compound: CCN1CCN(Cc2ccc(Nc3ncc(F)c(-c4cc(F)c5nc(C)n(C(C)C)c5c4)n3)nc2)CC1; assay: as above

PDXHCI002
increase in dead-cell fraction (Flavopiridol [1]; 0.0001 µM): -0.0222 | increase in dead-cell fraction (Flavopiridol [1]; 0.0003162 µM): 0.0027 | increase in dead-cell fraction (Flavopiridol [1]; 0.001 µM): -0.0057 | increase in dead-cell fraction (Flavopiridol [1]; 0.003162 µM): 0.0089 | increase in dead-cell fraction (Flavopiridol [1]; 0.01 µM): 0.0079 | increase in dead-cell fraction (Flavopiridol [1]; 0.03162 µM): 0 | increase in dead-cell fraction (Flavopiridol [1]; 0.1 µM): 0.0552 | increase in dead-cell fraction (Flavopiridol [1]; 0.3162 µM): 0.306 | increase in dead-cell fraction (Flavopiridol [1]; 1 µM): 0.294 | increase in dead-cell fraction ([2]; 0.001 µM): -0.0112 | increase in dead-cell fraction ([2]; 0.003162 µM): -0.0293 | increase in dead-cell fraction ([2]; 0.01 µM): -0.0317 | increase in dead-cell fraction ([2]; 0.03162 µM): -0.0292 | increase in dead-cell fraction ([2]; 0.1 µM): -0.0036 | increase in dead-cell fraction ([2]; 0.3162 µM): 0.0233 | increase in dead-cell fraction ([2]; 1 µM): 0.161 | increase in dead-cell fraction ([2]; 3.162 µM): 0.61 | increase in dead-cell fraction ([2]; 10 µM): 0.778 | GR value (THZ1; 0.0001 µM): 1.05 GR | GR value (THZ1; 0.0003162 µM): 1.01 GR | GR value (THZ1; 0.001 µM): 1.02 GR | GR value (THZ1; 0.003162 µM): 0.984 GR | GR value (THZ1; 0.01 µM): 0.541 GR | GR value (THZ1; 0.03162 µM): -0.0195 GR | GR value (THZ1; 0.1 µM): -0.163 GR | GR value (THZ1; 0.3162 µM): -0.148 GR | GR value (THZ1; 1 µM): -0.193 GR | GR value (Flavopiridol [3]; 0.0001 µM): 1.02 GR | GR value (Flavopiridol [3]; 0.0003162 µM): 0.997 GR | GR value (Flavopiridol [3]; 0.001 µM): 0.973 GR | GR value (Flavopiridol [3]; 0.003162 µM): 0.997 GR | GR value (Flavopiridol [3]; 0.01 µM): 0.999 GR | GR value (Flavopiridol [3]; 0.03162 µM): 0.817 GR | GR value (Flavopiridol [3]; 0.1 µM): 0.63 GR | GR value (Flavopiridol [3]; 0.3162 µM): -0.0265 GR | GR value (Flavopiridol [3]; 1 µM): -0.156 GR | GR value (YKL-5-124; 0.001 µM): 0.288 GR | GR value (YKL-5-124; 0.003162 µM): 0.306 GR | GR value (YKL-5-124; 0.01 µM): 0.168 GR | GR value (YKL-5-124; 0.03162 µM): 0.196 GR | GR value (YKL-5-124; 0.1 µM): 0.158 GR | GR value (YKL-5-124; 0.3162 µM): 0.0899 GR | GR value (YKL-5-124; 1 µM): 0.0177 GR | GR value (YKL-5-124; 3.162 µM): 0.0442 GR | GR value (YKL-5-124; 10 µM): -0.129 GR | GR value (THZ531; 0.0001 µM): 1.1 GR | GR value (THZ531; 0.0003162 µM): 1.06 GR | GR value (THZ531; 0.001 µM): 0.966 GR | GR value (THZ531; 0.003162 µM): 1.06 GR | GR value (THZ531; 0.01 µM): 0.958 GR | GR value (THZ531; 0.03162 µM): 0.782 GR | GR value (THZ531; 0.1 µM): 0.0491 GR | GR value (THZ531; 0.3162 µM): -0.122 GR | GR value (THZ531; 1 µM): -0.198 GR | GR value (LEE011/Ribociclib; 0.001 µM): 1.04 GR | GR value (LEE011/Ribociclib; 0.003162 µM): 1 GR | GR value (LEE011/Ribociclib; 0.01 µM): 0.903 GR | GR value (LEE011/Ribociclib; 0.03162 µM): 0.925 GR | GR value (LEE011/Ribociclib; 0.1 µM): 0.882 GR | GR value (LEE011/Ribociclib; 0.3162 µM): 0.862 GR | GR value (LEE011/Ribociclib; 1 µM): 0.828 GR | GR value (LEE011/Ribociclib; 3.162 µM): 0.766 GR | GR value (LEE011/Ribociclib; 10 µM): 0.51 GR | GR value ([4]; 0.0003162 µM): 1.09 GR | GR value ([4]; 0.001 µM): 1.09 GR | GR value ([4]; 0.003162 µM): 1.02 GR | GR value ([4]; 0.01 µM): 0.946 GR | GR value ([4]; 0.03162 µM): 0.723 GR | GR value ([4]; 0.1 µM): 0.552 GR | GR value ([4]; 0.3162 µM): 0.427 GR | GR value ([4]; 1 µM): 0.374 GR | GR value ([4]; 3.162 µM): 0.274 GR | GR value (Neratinib/HKI272; 0.0003162 µM): 1.05 GR | GR value (Neratinib/HKI272; 0.001 µM): 1 GR | GR value (Neratinib/HKI272; 0.003162 µM): 1.02 GR | GR value (Neratinib/HKI272; 0.01 µM): 0.829 GR | GR value (Neratinib/HKI272; 0.03162 µM): 0.637 GR | GR value (Neratinib/HKI272; 0.1 µM): 0.54 GR | GR value (Neratinib/HKI272; 0.3162 µM): 0.378 GR | GR value (Neratinib/HKI272; 1 µM): 0.19 GR | GR value (Neratinib/HKI272; 3.162 µM): -0.143 GR | GR value (BSJ-03-123; 0.001 µM): 1.08 GR | GR value (BSJ-03-123; 0.003162 µM): 1.03 GR | GR value (BSJ-03-123; 0.01 µM): 0.992 GR | GR value (BSJ-03-123; 0.03162 µM): 0.883 GR | GR value (BSJ-03-123; 0.1 µM): 0.812 GR | GR value (BSJ-03-123; 0.3162 µM): 0.771 GR | GR value (BSJ-03-123; 1 µM): 0.565 GR | GR value (BSJ-03-123; 3.162 µM): 0.472 GR | GR value (BSJ-03-123; 10 µM): -0.0835 GR | GR value ([5]; 0.0001 µM): 1.11 GR | GR value ([5]; 0.0003162 µM): 1.1 GR | GR value ([5]; 0.001 µM): 1.11 GR | GR value ([5]; 0.003162 µM): 1.05 GR | GR value ([5]; 0.01 µM): 0.744 GR | GR value ([5]; 0.03162 µM): -0.331 GR | GR value ([5]; 0.1 µM): -0.387 GR | GR value ([5]; 0.3162 µM): -0.343 GR | GR value ([5]; 1 µM): -0.365 GR | GR value ([6]; 0.001 µM): 1.08 GR | GR value ([6]; 0.003162 µM): 1 GR | GR value ([6]; 0.01 µM): 0.785 GR | GR value ([6]; 0.03162 µM): 0.527 GR | GR value ([6]; 0.1 µM): 0.24 GR | GR value ([6]; 0.3162 µM): 0.0121 GR | GR value ([6]; 1 µM): -0.312 GR | GR value ([6]; 3.162 µM): -0.593 GR | GR value ([6]; 10 µM): -0.688 GR
